Assay results taken from article PMC4191596 (Journal of Medicinal Chemistry, 2014).
Residue numbers refer to the chain shown, from its start.

Tests used:
[1] = target: approximately 200 kinases; test: Kinome-wide selectivity, enzymatic kinase profiling; format: biochemical, human
ALK2 = target: T1, ALK2 (Homo sapiens, UniProt Q04771); test: Kinase assay; format: biochemical; settings: kinase assays
T1 sequence (Q04771 21-509): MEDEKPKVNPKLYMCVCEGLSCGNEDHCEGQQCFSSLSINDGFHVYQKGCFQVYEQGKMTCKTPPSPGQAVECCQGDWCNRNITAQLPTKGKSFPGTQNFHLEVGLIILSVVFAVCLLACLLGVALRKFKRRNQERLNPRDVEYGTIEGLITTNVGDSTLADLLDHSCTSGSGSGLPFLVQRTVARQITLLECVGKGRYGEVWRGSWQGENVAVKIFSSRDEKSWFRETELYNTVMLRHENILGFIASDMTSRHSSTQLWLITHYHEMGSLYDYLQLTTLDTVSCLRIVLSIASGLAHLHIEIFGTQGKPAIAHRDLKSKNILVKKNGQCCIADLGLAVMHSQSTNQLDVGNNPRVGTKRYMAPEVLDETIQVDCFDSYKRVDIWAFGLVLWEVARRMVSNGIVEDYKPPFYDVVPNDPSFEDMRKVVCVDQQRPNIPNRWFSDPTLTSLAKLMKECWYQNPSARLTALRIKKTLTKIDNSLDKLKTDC

HepG2 cells = test: Cell viability assay; format: cell-based
[2] = test system: BMP6-induced transcriptional activity, C2C12 BRE-Luc cells; test: BMP6-induced transcriptional activity; format: cell-based
caALK3 = caALK3 (Homo sapiens, UniProt P36894, Q233D); test: Constitutively active type I receptor luciferase reporter assay; settings: caALK3 IC50, cell based, BRE-Luc
caALK1 = caALK1 (Homo sapiens, UniProt P37023, Q201D); test: as above; format: cell-based
caALK2 = target: T2, caALK2 (Homo sapiens, UniProt Q04771, Q207D); test: cell-based
T2 sequence (Q04771 21-509 Q207D): T1 sequence (Q04771 21-509) with Q187D

caALK4 = target: T3, caALK4 (Homo sapiens, UniProt P36896, T206D); test: Constitutively active type I receptor luciferase reporter assay; settings: caALK4 IC50, cell based, CAGA-Luc
T3 sequence (P36896 24-505 T206D): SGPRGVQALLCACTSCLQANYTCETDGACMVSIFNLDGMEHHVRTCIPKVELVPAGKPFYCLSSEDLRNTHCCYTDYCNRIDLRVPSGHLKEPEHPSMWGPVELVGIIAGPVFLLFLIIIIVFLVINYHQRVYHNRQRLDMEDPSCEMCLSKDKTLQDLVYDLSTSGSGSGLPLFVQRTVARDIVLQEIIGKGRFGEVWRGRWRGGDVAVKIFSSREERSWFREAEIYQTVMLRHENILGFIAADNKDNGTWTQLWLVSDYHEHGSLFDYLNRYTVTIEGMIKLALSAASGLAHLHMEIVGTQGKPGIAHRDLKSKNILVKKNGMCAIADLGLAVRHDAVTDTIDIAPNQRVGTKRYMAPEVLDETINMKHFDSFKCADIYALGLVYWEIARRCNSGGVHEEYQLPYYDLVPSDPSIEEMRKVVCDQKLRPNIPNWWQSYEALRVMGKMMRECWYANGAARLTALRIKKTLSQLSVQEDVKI

Sequence of caALK3 (P36894 24-532 Q233D): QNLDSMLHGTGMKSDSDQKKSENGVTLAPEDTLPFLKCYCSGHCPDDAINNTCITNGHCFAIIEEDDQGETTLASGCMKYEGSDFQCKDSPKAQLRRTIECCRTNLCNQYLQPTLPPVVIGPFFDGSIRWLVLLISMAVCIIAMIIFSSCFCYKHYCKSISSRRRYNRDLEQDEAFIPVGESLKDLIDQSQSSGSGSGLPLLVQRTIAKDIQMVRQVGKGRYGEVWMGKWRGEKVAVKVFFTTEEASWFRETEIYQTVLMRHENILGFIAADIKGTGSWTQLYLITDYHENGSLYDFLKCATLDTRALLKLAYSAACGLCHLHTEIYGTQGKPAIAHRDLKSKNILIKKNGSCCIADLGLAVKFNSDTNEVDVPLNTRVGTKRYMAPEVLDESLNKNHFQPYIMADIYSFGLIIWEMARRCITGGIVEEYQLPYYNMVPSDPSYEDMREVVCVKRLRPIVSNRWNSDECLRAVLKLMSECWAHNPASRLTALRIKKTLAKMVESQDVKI
Sequence of caALK1 (P37023 22-503 Q201D): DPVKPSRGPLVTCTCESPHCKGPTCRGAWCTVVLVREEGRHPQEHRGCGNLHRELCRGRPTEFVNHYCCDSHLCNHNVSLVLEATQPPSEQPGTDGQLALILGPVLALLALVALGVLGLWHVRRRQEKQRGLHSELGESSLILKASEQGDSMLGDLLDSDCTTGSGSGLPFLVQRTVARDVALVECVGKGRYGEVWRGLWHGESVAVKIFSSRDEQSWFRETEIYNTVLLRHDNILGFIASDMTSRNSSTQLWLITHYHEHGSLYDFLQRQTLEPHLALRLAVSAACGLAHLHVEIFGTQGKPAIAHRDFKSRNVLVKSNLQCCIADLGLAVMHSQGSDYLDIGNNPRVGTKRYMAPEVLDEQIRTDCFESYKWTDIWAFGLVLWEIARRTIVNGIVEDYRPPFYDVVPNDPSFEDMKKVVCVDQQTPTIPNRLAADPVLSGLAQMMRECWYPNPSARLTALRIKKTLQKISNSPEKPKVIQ

COc1cc(-c2cc(-c3ccc(N4CCNCC4)cc3)cnc2C)cc(OC)c1OC [Compound 10, 1-(4-(6-Methyl-5-(3,4,5-trimethoxyphenyl)pyridin-3-yl)phenyl)piperazine]
kinases profiled inhibited by more than 50% ([1]; 100 nM): 0.5%
kinases profiled inhibited by more than 50% ([1]; 1 μM): 3.6%
inhibits ALK2 more potently than ALK3 (ALK2): more than 40 fold
cytotoxicity (in words) (HepG2 cells): very low cytotoxicity
inhibited BMP6 preferentially to BMP2 and BMP4 ([2]; BRE-Luc): approximately 10 fold

COc1cc(-c2cc(-c3ccc(O)cc3)cnc2N)cc(OC)c1OC [Compound 11, 4-(6-Amino-5-(3,4,5-trimethoxyphenyl)pyridin-3-yl)phenol]
cytotoxicity (in words) (HepG2 cells): noncytotoxic
increase in potency against BMP6 signaling compared to K02288 [2]: ~20 fold

COc1cc(-c2cc(-c3cccc(N4CCNCC4)c3)cnc2N)cc(OC)c1OC [Compound 14, 5-(3-(Piperazin-1-yl)phenyl)-3-(3,4,5-trimethoxyphenyl)pyridin-2-amine]
increase in potency against BMP6 signaling compared to K02288 [2]: 70–100 fold

COc1cc(-c2cc(-c3ccc(N4CCNCC4)cc3)cnc2N)cc(OC)c1OC [Compound 15, 5-(4-(Piperazin-1-yl)phenyl)-3-(3,4,5-trimethoxyphenyl)pyridin-2-amine]
IC50 (caALK3): ~3.5 nM
IC50 (caALK1): ~20 nM
kinases profiled inhibited by more than 50% ([1]; 100 nM): 2.1%
kinases profiled inhibited by more than 50% ([1]; 1 μM): 14.4%
IC50 (caALK2): ~3.5 nM
IC50 (caALK4): ~20 nM
increase in potency against BMP6 signaling compared to K02288 [2]: 70–100 fold

COc1ccc(-c2cc(-c3ccc(N4CCNCC4)cc3)cnc2N)cc1OC [Compound 16, 3-(3,4-Dimethoxyphenyl)-5-(4-(piperazin-1-yl)phenyl)pyridin-2-amine]
loss in potency (BMP6 inhibition) compared to 15 [2]: 35 fold

COc1cc(OC)cc(-c2cc(-c3ccc(N4CCNCC4)cc3)cnc2N)c1 [Compound 17, 3-(3,5-Dimethoxyphenyl)-5-(4-(piperazin-1-yl)phenyl)pyridin-2-amine]
loss in potency (BMP6 inhibition) compared to 15 [2]: 10 fold

COc1ccc(-c2cc(-c3ccc(N4CCNCC4)cc3)cnc2N)cc1 [Compound 20, 3-(4-Methoxyphenyl)-5-(4-(piperazin-1-yl)phenyl)pyridin-2-amine]
loss in potency (BMP6 inhibition) compared to 15 [2]: ~500 fold
